Reference: US20250214977A1, “STAT6 INHIBITORS AND USES THEREOF” (Kymera Therapeutics, Inc., priority 2024, published 2025)

Tested on: Phosphorylation of STAT6 in human A549 cells
Assay: Phosphorylated STAT6 (pSTAT6) flow cytometry assay in human A549 cells
Assay type: cell-based
Conditions: listed as I-394, read-out: STAT6 IL4 pSTAT6 assay in A549 cells: Average IC50
From the text: Example 3. Phosphorylated STAT6 (pSTAT6) Flow Cytometry Assay in Human A549 Cells
Phosphorylation of STAT6 in human A549 cells was quantitatively measured using flow cytometry technology.

Row | IC50 [nM] | Molecule
1 | > 100000 | CCC1CN(C)CC1c1cc(C2=CCCN(C(=O)CCn3ccnn3)C2)c(F)c2[nH]c(C(=O)N3CCN(c4ncc(F)cc4OC)CC3)cc12 (centres unmarked) [Example I-1209, 1-[5-[4-(4-ethyl-1-methyl-pyrrolidin-3-yl)-7-fluoro-2-[4-(5-fluoro-3-methoxy-2-pyridyl)piperazine-1-carbonyl]-1H-indol-6-yl]-3,6-dihydro-2H-pyridin-1-yl]-3-(triazol-1-yl)propan-1-one]

Same assay, conditions: read-out: STAT6 IL4 pSTAT6 assay in A549 cells: Average IC50

Row | Molecule | IC50 [nM]
2 | COc1cccnc1N1CCN(C(=O)c2cc3c(-c4ccc(OC)c5c4OCCO5)cc(C4=CCCN(C(=O)CCn5ccnn5)C4)c(F)c3[nH]2)CC1 [Example I-583] | > 100000
3 | COc1ccccc1-c1cc(C2=CCCN(C(=O)CCn3ccnn3)C2)c(F)c2[nH]c(C(=O)N3CCN(C4CC4)CC3)cc12 [Example I-325] | < 100
4 | CNc1ccc(-c2cc(C3=CCCN(C(=O)CCn4ccnn4)C3)c(F)c3[nH]c(C(=O)N4CCN(C)CC4)cc23)c(OC)c1 [Example I-990] | < 100
5 | COc1cc(F)cnc1N1CCN(C(=O)c2cc3c(-c4ccc(C#N)c(C)c4)cc(C4=CCCN(C(=O)CCn5ccnn5)C4)c(F)c3[nH]2)CC1 [Example I-1139] | < 100
6 | COc1ccccc1-c1cc(C2=CCCN(C(=O)CCn3ccnn3)C2)c(F)c2[nH]c(C(=O)N3CC=C(c4ncccc4OC)CC3)cc12 [Example I-425] | < 100
7 | CCn1cc2c(n1)CN(C(=O)c1cc3c(-c4ccccc4OC)cc(C4=CCCN(C(=O)CCn5ccnn5)C4)c(F)c3[nH]1)C2 [Example I-505] | 10000 to 100000
8 | CCS(=O)(=O)N1CCN(C(=O)c2cc3c(-c4ccccc4OC)cc(C4=CCCN(C(=O)CCn5ccnn5)C4)c(F)c3[nH]2)CC1 [Example I-980] | < 100
9 | COc1cc2ncnc(N3CCN(C(=O)c4cc5c(-c6ccccc6OC)cc(C6=CCCN(C(=O)CCn7ccnn7)C6)c(F)c5[nH]4)CC3)c2cc1O [Example I-955] | < 100
10 | CN(C)C(=O)c1cc2ccc([C@H]3CCCN(C(=O)CCn4ccnn4)C3)cc2[nH]1 [Example I-1189] | 100 to 1000
11 | COc1ccccc1-c1cc(C2=CCCN(C(=O)CCn3ccnn3)C2)c(F)c2[nH]c(C(=O)N3CCN(Cc4ccncc4)CC3)cc12 [Example I-858] | < 100
12 | COc1ccccc1-c1cc(C2=CCCN(C(=O)CCn3ccnn3)C2)c(F)c2[nH]c(C(=O)N3CCN(C)C(c4ccccc4)C3)cc12 (centres unmarked) [Example I-911] | 100 to 1000
13 | CCOC(=O)c1ccc(N2CCN(C(=O)c3cc4c(-c5ccccc5OC)cc(C5=CCCN(C(=O)CCn6ccnn6)C5)c(F)c4[nH]3)CC2)cc1 [Example I-931] | 100 to 1000
14 | COc1ccccc1-c1cc(C2=CCCN(C(=O)CCn3ccnn3)C2)c(F)c2[nH]c(C(=O)N3CCC(=O)N(C)CC3)cc12 [Example I-994] | < 100
15 | COc1cc(F)cnc1N1CCN(C(=O)c2cc3c(-c4cc(C)nc5ccccc45)cc(C4=CCCN(C(=O)CCn5ccnn5)C4)c(F)c3[nH]2)CC1 [Example I-630] | < 100
16 | CC(=O)N1CCC=C(c2cc(-c3ccc4cnn(C)c4c3)c3cc(C(=O)N(C)C)[nH]c3c2F)C1 [Example I-882] | 100 to 1000
17 | COc1cc(N2CCN(C(=O)c3cc4c(-c5ccccc5OC)cc(C5=CCCN(C(=O)CCn6ccnn6)C5)c(F)c4[nH]3)CC2)c2ccnn2c1 [Example I-926] | < 100
18 | COc1ccccc1-c1cc(C2=CCCN(C(=O)CCn3ccnn3)C2)c(F)c2[nH]c(C(=O)N3CCN(c4cc(C)cn5ncnc45)CC3)cc12 [Example I-950] | < 100

Row | Molecule | IC50 [nM]
19 | CCC1CCCCC1c1cc(C2=CCCN(C(=O)CCn3ccnn3)C2)c(F)c2[nH]c(C(=O)N3CCN(c4ncc(F)cc4OC)CC3)cc12 (single isomer, unassigned) [Example I-1175] | 100 to 1000
20 | COc1ccc(-c2cc(C3=CCCN(C(=O)CCn4ccnn4)C3)c(F)c3[nH]c(C(=O)N4CCN(c5ncc(F)cc5OC)CC4)cc23)c(C2CC2)c1 [Example I-641] | < 100
21 | COc1c(F)cccc1-c1cc(C2=CCCN(C(=O)CCn3ccnn3)C2)cc2cc(C(=O)N(C)C)oc12 [Example I-1076] | < 100
22 | COc1ccncc1-c1cc(C2=CCCN(C(=O)CCn3ccnn3)C2)c(F)c2[nH]c(C(=O)N3CCN(c4nc(C)ccc4OC)CC3)cc12 [Example I-433] | > 100000
23 | CCc1ccncc1-c1cc(C2=CCCN(C(C)=O)C2)c(F)c2[nH]c(C(=O)N3Cc4cnn(C)c4C3)cc12 [Example I-702] | 10000 to 100000
24 | COc1ccccc1-c1cc(C2=CCCN(C(=O)CCn3ccnn3)C2)cc2cc(C(=O)N(C)C)oc12 [Example I-1103] | < 100
25 | COc1cnccc1-c1cc(C2=CCCN(C(=O)CCn3ccnn3)C2)c(F)c2[nH]c(C(=O)N3Cc4cnn(C)c4C3)cc12 [Example I-502] | 10000 to 100000
26 | CCOc1ccncc1-c1cc(C2=CCCN(C(=O)CCn3cccn3)C2)c(F)c2[nH]c(C(=O)N3CCN(c4cncnc4OC)CC3)cc12 [Example I-486] | < 100
27 | COc1cccc(C2=CCN(C(=O)c3cc4c(-c5cnccc5OC)cc(C5=CCCN(C(=O)CCn6ccnn6)C5)c(F)c4[nH]3)CC2)n1 [Example I-443] | < 100
28 | CC(=O)N1CCC=C(c2cc(-c3ccccc3N(C)C)c3cc(C(=O)N(C)C)[nH]c3c2F)C1 [Example I-1093] | 100 to 1000
29 | COc1ccccc1-c1cc(C2=CCCN(C(=O)CCn3ccnn3)C2)c(F)c2[nH]c(C(=O)N3CCc4cccc(OC)c4C3)cc12 [Example I-901] | < 100
30 | CCc1ccncc1-c1cc(C2=CCC[C@H](C(=O)O)C2)c(F)c2[nH]c(C(=O)N3CCN(c4ncc(F)cc4OC)CC3)cc12 (single isomer, unassigned) [Example I-809] | > 100000
31 | COc1cccnc1N1CCN(C(=O)c2cc3c(-c4cnc(C)c(C)c4OC)cc(C4=CCCN(C(=O)CCn5ccnn5)C4)c(F)c3[nH]2)CC1 [Example I-724] | < 100
32 | CCCc1cc(C2=CCCN(C(=O)CCn3ccnn3)C2)c(F)c2[nH]c(C(=O)N3CCN(c4ncc(F)cc4OC)CC3)cc12 [Example I-693] | > 100000
33 | COc1nc(N2CCN(C(=O)c3cc4c(-c5cnc6ccccc6c5OC)cc(C5=CCCN(C(=O)CCn6ccnn6)C5)c(F)c4[nH]3)CC2)ccc1F [Example I-469] | 100 to 1000
34 | Cc1ccc(Cl)c(-c2cc(C3=CCCN(C(=O)CCn4ccnn4)C3)cc3[nH]c(C(=O)N(C)C)cc23)c1 [Example I-1061] | < 100
35 | Cc1c[nH]c2ncc(-c3cc(C4=CCCN(C(=O)CCn5ccnn5)C4)c(F)c4[nH]c(C(=O)N(C)C)cc34)cc12 [Example I-1101] | < 100

The next lines start with the values.

Row | IC50 [nM] | Molecule
36 | < 100 | CNc1ccc(-c2cc(C3=CCCN(C(=O)CCn4ccnn4)C3)cc3cc(C(=O)N(C)C)oc23)c(OC)c1 [Example I-1056]
37 | < 100 | COc1cc(F)cnc1N1CCN(C(=O)c2cc3c(-c4ccc(C(O)C(F)(F)F)cc4)cc(C4=CCCN(C(=O)CCn5ccnn5)C4)c(F)c3[nH]2)CC1 (centres unmarked) [Example I-1145]
38 | 1000 to 10000 | COc1ccccc1-c1cc(C2=CCCN(C(=O)CCn3ccnn3)C2)c(F)c2[nH]c(C(=O)N3CC4CCN(Cc5ccccc5)C4C3)cc12 (centres unmarked) [Example I-987]
39 | > 100000 | COc1cnccc1-c1cc(C2=CCCN(C(=O)CCn3ccnn3)C2)c(F)c2[nH]c(C(=O)N3CCN(c4ccccc4OC)CC3)cc12 [Example I-407]
40 | < 100 | COc1ccccc1-c1cc(C2=CCCN(C(=O)CCn3ccnn3)C2)c(F)c2[nH]c(C(=O)N3CCN(CC4CCCO4)CC3)cc12 (centres unmarked) [Example I-1184]
41 | < 100 | CNc1ccc(-c2cc(C3=CCCN(C(=O)CCn4ccnn4)C3)cc3[nH]c(C(=O)N(C)C)cc23)c(Cl)c1 [Example I-1050]
42 | 100 to 1000 | COc1ccccc1-c1cc(C2=CCCN(C(C)=O)C2)c(F)c2sc(C(=O)N(C)C)cc12 [Example I-552]
43 | > 100000 | CN(C(=O)c1cc2c(-c3cncnc3C3CC3)cc(C3=CCCN(C(=O)CCn4ccnn4)C3)c(F)c2[nH]1)C1CC1 [Example I-1043]
44 | > 100000 | 5-(1-(2-formyl-1,2,3,4-tetrahydroisoquinoline-3-carbonyl)-1,2,5,6-tetrahydropyridin-3-yl)-7-(2-methoxyphenyl)-N,N-dimethylbenzofuran-2-carboxamide [Example I-803]
45 | 1000 to 10000 | COCc1cccc(NC(=O)c2cc3c(-c4ccccc4OC)cc(C4=CCCN(C(=O)CCn5ccnn5)C4)c(F)c3[nH]2)c1 [Example I-1028]
46 | 100 to 1000 | COc1ccccc1-c1cc(C2=CCCN(C(=O)CCn3ccnn3)C2)c(F)c2[nH]c(C(=O)N3CCN(c4ccccc4OC(F)(F)F)CC3)cc12 [Example I-420]
47 | < 100 | Cc1ccc(C#N)cc1-c1cc(C2=CCCN(C(=O)CCn3ccnn3)C2)cc2cc(C(=O)N(C)C)oc12 [Example I-1079]
48 | < 100 | COc1ccccc1-c1cc(C2=CCCN(C(=O)CCn3ccnn3)C2)c(F)c2[nH]c(C(=O)N3CCc4c(cnn4C)C3)cc12 [Example I-518]
49 | < 100 | CN(C)C(=O)c1cc2cc(C3=CCCN(C(=O)CCn4ccnn4)C3)cc(CN3CCNCC3)c2o1 [Example I-1179]
50 | < 100 | CCc1cc(C)ncc1-c1cc(C2=CCCN(C(=O)CC(=O)O)C2)c(F)c2[nH]c(C(=O)N3Cc4cnn(CC)c4C3)cc12 [Example I-788]
51 | 100 to 1000 | CCc1ccncc1-c1cc(C2=CCCN(C(C)=O)C2)c(F)c2[nH]c(C(=O)N3CCN(c4ncccc4OC)CC3)cc12 [Example I-619]
52 | < 100 | COc1cnccc1-c1cc(C2=CCCN(C(=O)CCn3ccnn3)C2)c(F)c2[nH]c(C(=O)N3CCN(c4ncccc4OC)CC3)cc12 [Example I-366]
53 | < 100 | CC(=O)N1CCC=C(c2cc(-c3cccc4c3OCCO4)c3cc(C(=O)N(C)C)[nH]c3c2F)C1 [Example I-1095]
54 | < 100 | COc1ccccc1-c1cc(C2=CCCN(C(=O)CCn3ccnn3)C2)c(F)c2[nH]c(C(=O)N3CCN(c4cc(C(F)(F)F)ccn4)CC3)cc12 [Example I-935]
55 | 10000 to 100000 | COc1cc(F)cnc1N1CCN(C(=O)c2cc3c(Cl)cc(C4=CCCN(C(=O)CCn5ccnn5)C4)c(F)c3[nH]2)CC1 [Example I-499]
56 | < 100 | COc1ccccc1-c1cc(C2=CCCN(C(=O)CCn3ccnn3)C2)c(F)c2[nH]c(C(=O)N3CCN(c4ccccc4OC)CC3)cc12 [Example I-349]
